The text below walks through data of paper PMC10180054, “Design, Synthesis and Biological Evaluation of Novel Pleuromutilin Derivatives Containing 6-Chloro-1-R-1H-pyrazolo[3,4-d]pyrimidine-4-amino Side Chain” (Molecules, 2023).

≈ marks a conversion by molar mass, not a printed value.

Data set [1] deals with MRSA ATCC 43300. The data set can be described thus: MIC/MBC by broth dilution (CLSI). The class given is cell-based, Staphylococcus aureus. Conditions: for MBC / MIC: Staphylococcus aureus; for MBC: MRSA ATCC 43300, 99.9% of the bacteria killed; for MIC: MRSA ATCC 43300, broth dilution, 24 h, 37 °C, read-out: MIC. The protocol: (§1) The in vitro antimicrobial activity of the pleuromutilin derivatives was assessed against MRSA ATCC 43300, S. aureus ATCC 29213, S. aureus 144 and S. aureus AD3 according to the Clinical and Laboratory Standards Institute (CLSI). Tiamulin was used as a positive control drug. The results were summarized as the minimum inhibitory concentration (MIC) and the minimum bactericidal concentration (MBC) in Table 1 and Table 2. In addition, MIC results for the pleuromutilin derivatives against four Gram-negative bacteria are supplied in Tables S2 and S3.
(§2) The MIC and MBC values of the synthesized novel pleuromutilin derivatives against MRSA ATCC 43300, S. aureus ATCC 29213, S. aureus 144 and S. aureus AD3 were measured. Tiamulin was used as a positive control drug. The MIC and MBC values were manipulated by broth dilution according to the Clinical and Laboratory Standards (CLSI). Each compound to be measured was dissolved in a solution of 95% deionized water, 2.5% dimethyl sulfoxide (DMSO) and 2.5% Tween-80 with a concentration of 1280 µg/mL. Subsequently, serial twofold dilutions were made in a concentration range from 64 µg/mL to 0.0625 µg/mL. The working bacterial suspension was inoculated into each well, which provided the final inoculum density of 5 × 10^5 CFU/mL. Three parallel experiments were performed for each compound.
(§3) Overall, 25 µL of the bacterial solution from the wells with no obvious bacterial growth was inoculated on MH agar plates. Then, the inoculated MH agar plates were further cultured at 37 °C for 24 h.
Background: In broth dilution the organism is exposed to a series of concentrations in liquid medium.

In data set [2] the test system is MRSA ATCC 43300. The data set can be described thus: Constant concentration time–kill curves. The class given is cell-based, Staphylococcus aureus. Conditions: for type of bactericidal kinetics: time–kill curves, 1 to 32 × MIC. The protocol:
Time–kill kinetic assays were performed, which were used to investigate the in vitro bactericidal kinetic effect of compounds 12c, 19c, 22c and tiamulin.
Time–kill curve assays were established with the MIC value to investigate the antibacterial effect of constant drug concentration on MRSA. […] MRSA ATCC 43300 was incubated in MH broth at 37 °C for 4.5 h and diluted to 1 × 10^6 CFU/mL in MH broth. The saline control group was subjected to the same schedule but 0.9% saline water was added instead of the test compound. All the samples were incubated in an oscillating thermostatic at 37 °C, and then 100 μL of the mixture was extracted to 900 μL of sterile saline (0.9%) at 0, 3, 6, 9, 12 and 24 h, respectively. Samples were serially diluted 10-fold in sterile saline (0.9%) and inoculated onto agar plates. The colonies were counted after incubation at 37 °C for 24 h. Three independent experiments were performed according to our previous work. Time–kill curves were constructed by plotting the log10 CFU per millilitre versus time, and the change in bacterial concentration was determined.

Data set [3] deals with S. aureus ATCC 29213. Nature of the data set: MIC/MBC by broth dilution (CLSI). Conditions: Staphylococcus aureus, ATCC29213; for MBC: S. aureus ATCC 29213; for MIC: S. aureus ATCC 29213, broth dilution, 24 h, 37 °C. The class given is cell-based. As to the method: as §1, §2, §3
The subject of data set [4] is S. aureus 144. Nature of the data set: MIC/MBC by broth dilution (CLSI). Type of data set: cell-based. Conditions: Staphylococcus aureus; S. aureus 144 (clinical strain). As to the method: as §1, §2, §3
Data set [5] has as its system S. aureus AD3. The data set can be described thus: MIC/MBC by broth dilution (CLSI). Conditions: Staphylococcus aureus; S. aureus AD3 (clinical strain). The class given is cell-based. As to the method:
as §1, §2, §3

The subject of data set [6] is MRSA ATCC 43300. Nature of the data set: Neutropenic murine thigh infection model. The class given is in vivo. Conditions: neutropenic mice, 20 mg/kg, 24 h after dosing, n = 6/group. As to the method:
Therefore, the in vivo efficacy of compounds 12c and 22c were assessed using the murine neutropenic thigh infection model. Mice groups treated with saline and tiamulin were chosen as the negative and positive controls.
Model experiments of neutropenic mouse thigh infection were manipulated as described in the literature. Female, six-week-old, specific-pathogen-free mice weighing approximately 23~26 g were used throughout the study. Mice were rendered neutropenic by injection of cyclophosphamide (Mead Johnson Pharmaceuticals, Evansville, IN) on day 4 (150 mg/kg) and day 1 (100 mg/kg) before the experiment. The neutrophil numbers in mice blood should be <0.1 × 10^9/L [34]. In total, 0.1 mL of MH broth of MRSA (10^7 CFU/mL) was inoculated into each thigh of the neutropenic mice. Mice were divided into 4 groups (6 mice per group), including control (sterile saline), compounds 12c, 22c and tiamulin groups. After 3 h post-infection, the corresponding drugs were injected into each mouse’s thigh. Mice were euthanized following intravenous injection for 24 h. Thigh tissue of each mouse was removed, collected, weighed and homogenized in 3 mL of ice sterile saline. Six ten-fold serial dilutions were performed and 25 μL of the bacterial solution from each tube was plated on MH agar plates. The resulting colonies were counted after 24 h incubation at 37 °C. The protocol for this study was reviewed and approved by the Institutional Animal Care and Use Committee of the South China Agricultural University.

For data set [7], the system named is MRSA ATCC 43300. Nature of the data set: Post-antibiotic effect (PAE). The class given is cell-based, Staphylococcus aureus. The protocol:
PAE has been considered as pharmacodynamic assistance which provides a reference for the rational formulation of dosing regimen. PAE refers to the temporary suppression of bacterial growth following transient antibiotic treatment. PAE assays were conducted for compounds 12c and 22c.
PAE is calculated from growth curves on the difference in time required for the number (1 log10 CFU/mL) of drug-exposed and unexposed microbes. […] The PAE values of compounds 12c and 22c increased with increasing incubation time.
PAE of compounds 12c and 22c on MRSA ATCC 43300 was determined using MH broth according to our previous work. The final concentration of MRSA was 1 × 10^6 CFU/mL by dilution with MH broth. Compounds 12c, 22c and tiamulin were supplemented in the suspension at a final concentration of 2 × MIC and 4 × MIC, respectively. The negative control group contained untreated MRSA bacterial cells. The test tubes were incubated with a 37 °C constant temperature vibration incubator for 1 and 2 h. After incubation, the test compound was removed from the sample by diluting 1000-fold with the preheated MH broth. Next, 100 μL of suspension from each culture was 10-fold diluted in sterile saline and inoculated on MH agar plates at 0, 2, 4, 6 and 8 h after inoculation. The number of colonies was calculated after incubation at 37 °C for 24 h. The experiments were performed in triplicate.

On to `C=C[C@]1(C)C[C@@H](OC(=O)CSc2ccc(Nc3nc(Cl)nc4c3cnn4-c3ccc(F)cc3)cc2)[C@]2(C)[C@H](C)CC[C@]3(CCC(=O)[C@H]32)[C@@H](C)[C@@H]1O` [Compound 19c, 22-[4-(6-Chloro-1-(4-fluorophenyl)-1H-pyrazolo[3,4-d]pyrimidine-4-yl)amino-Phenylsulfanyl]-22-deoxypleuromutilin], for which the melting point – broadly, the temperature, or range, at which the solid turns liquid – fell in the range of 141 to 144 °C. In data set [1], the minimal bactericidal concentration (MBC) (usually the lowest tested concentration that kills the bacteria rather than only halting them) was found to be 0.5 µg/mL (≈ 0.683 µM) and the minimal inhibitory concentration (MIC) (commonly the lowest concentration that inhibits growth of the organism) came to 0.25 µg/mL (≈ 0.341 µM). Further, the MBC/MIC ratio in data set [1] (against MRSA) is at most 2. In data set [2] (2 × MIC, 24 h incubation), the “MRSA killed in time–kill assay” value came to 99.9% and the “reduction of MRSA in time–kill assay” value is on record as −3.57 log10 CFU/mL. For the same compound, the “reduction of MRSA in time–kill assay” value in data set [2] (4 × MIC) is on record as −5.16 log10 CFU/mL. Further, the “type of bactericidal kinetics” value in data set [2] was “time-dependent”. In data set [3], this compound registered a minimal bactericidal concentration (MBC) of 0.5 µg/mL (≈ 0.683 µM) and an MIC of 0.25 µg/mL (≈ 0.341 µM). In addition, in data set [4], the minimum bactericidal concentration (MBC) was 2 µg/mL (≈ 2.73 µM) and the minimum inhibitory concentration (MIC) came to 1 µg/mL (≈ 1.37 µM). In data set [5], this compound gave an MBC of 1 µg/mL (≈ 1.37 µM) and an MIC of 0.25 µg/mL (≈ 0.341 µM).

`C=C[C@]1(C)C[C@@H](OC(=O)CNc2nc(Cl)nc3c2cnn3-c2cccc([N+](=O)[O-])c2)[C@]2(C)[C@H](C)CC[C@]3(CCC(=O)[C@H]32)[C@@H](C)[C@@H]1O` [Compound 27b, 22-[(6-Chloro-1-(3-nitrophenyl)-1H-pyrazolo[3,4-d]pyrimidine-4-yl)amino]-22-deoxypleuromutilin]: the melting point fell in the range of 131 to 135 °C. Also, the minimum inhibitory concentration (MIC) in data set [1] was above 64 µg/mL. The compound further came in with an MIC in data set [3] above 64 µg/mL. In data set [4], this compound showed a minimal inhibitory concentration (MIC) above 64 µg/mL. In data set [5], the MIC is above 64 µg/mL.

In turn, `C=C[C@]1(C)C[C@@H](OC(=O)CSc2ccc(Nc3nc(Cl)nc4c3cnn4-c3cccc([N+](=O)[O-])c3)cc2)[C@]2(C)[C@H](C)CC[C@]3(CCC(=O)[C@H]32)[C@@H](C)[C@@H]1O` [Compound 27c, 22-[4-(6-Chloro-1-(3-nitrophenyl)-1H-pyrazolo[3,4-d]pyrimidine-4-yl)amino-Phenylsulfanyl]-22-deoxypleuromutilin] displayed a melting point of 137 to 139 °C. Also, in data set [1], the minimal inhibitory concentration (MIC) was above 64 µg/mL. Further, the minimal inhibitory concentration (MIC) in data set [3] is above 64 µg/mL. The compound further had a minimal inhibitory concentration (MIC) in data set [4] above 64 µg/mL. In addition, the MIC in data set [5] was above 64 µg/mL.

The compound `C=C[C@]1(C)C[C@@H](OC(=O)CNc2nc(Cl)nc3c2cnn3-c2ccc3ccccc3c2)[C@]2(C)[C@H](C)CC[C@]3(CCC(=O)[C@H]32)[C@@H](C)[C@@H]1O` [Compound 28b, 22-[(6-Chloro-1-(naphthalen-2-yl)-1H-pyrazolo[3,4-d]pyrimidine-4-yl)amino]-22-deoxypleuromutilin] gave a melting point of 123 to 125 °C. Moreover, in data set [1], the MBC was above 64 µg/mL and the MIC worked out at 32 µg/mL (≈ 48.8 µM). In data set [3], this compound registered a minimal bactericidal concentration (MBC) above 64 µg/mL and an MIC of 32 µg/mL (≈ 48.8 µM). In data set [4], the MBC was above 64 µg/mL and 32 µg/mL (≈ 48.8 µM) was the least that counted as inhibitory (MIC). In addition, in data set [5], the MBC is above 64 µg/mL and the minimal inhibitory concentration (MIC) came to 32 µg/mL (≈ 48.8 µM).

Take `C=C[C@]1(C)C[C@@H](OC(=O)CSc2ccc(Nc3nc(Cl)nc4c3cnn4-c3ccc4ccccc4c3)cc2)[C@]2(C)[C@H](C)CC[C@]3(CCC(=O)[C@H]32)[C@@H](C)[C@@H]1O` [Compound 28c, 22-[4-(6-Chloro-1-(naphthalen-2-yl)-1H-pyrazolo[3,4-d]pyrimidine-4-yl-yl)amino-Phenylsulfanyl]-22-deoxypleuromutilin]: the melting point was in the range of 115 to 118 °C. Besides, the MIC in data set [1] is above 64 µg/mL. Also, in data set [3], the MIC was above 64 µg/mL. The same compound showed a minimal inhibitory concentration (MIC) in data set [4] above 64 µg/mL. The compound also registered a minimal inhibitory concentration (MIC) in data set [5] above 64 µg/mL.

In the case of `C=C[C@]1(C)C[C@@H](OC(=O)CSCCN(CC)CC)[C@]2(C)[C@H](C)CC[C@]3(CCC(=O)[C@H]32)[C@@H](C)[C@@H]1O` [Tiamulin, tiamulin, reference compound], the minimum bactericidal concentration (MBC) was 1 µg/mL (≈ 2.03 µM) in data set [1], 1 µg/mL (≈ 2.03 µM) in data set [3], 2 µg/mL (≈ 4.05 µM) in data set [4] and 2 µg/mL (≈ 4.05 µM) in data set [5]. The MIC in data set [1] stood at 0.5 µg/mL (≈ 1.01 µM); in data set [3], 1 µg/mL (≈ 2.03 µM); in data set [4], 1 µg/mL (≈ 2.03 µM); in data set [5] it was 1 µg/mL (≈ 2.03 µM). In data set [2] (2 × MIC, 24 h incubation), the “MRSA killed in time–kill assay” value was 99.9%. In addition, the “reduction of MRSA in time–kill assay” value in data set [2] (2 × MIC, 24 h incubation) is recorded as −3.78 log10 CFU/mL. Moreover, the “type of bactericidal kinetics” value in data set [2] is “time-dependent”. Besides, in data set [6], the “reduction of MRSA load in thigh vs growth control” value is −0.56 log10 CFU/mL. The PAE is listed as 0.27 h in data set [7] (2 × MIC, exposure for 1 h); 1.23 h in data set [7] (2 × MIC, exposure for 2 h); 0.42 h in data set [7] (4 × MIC, exposure for 1 h); 1.31 h in data set [7] (4 × MIC, exposure for 2 h).
